pIC50: −log10 of the molar value.
Legend:
HRAS wild-type protein = HRAS wild-type protein (Homo sapiens, UniProt P01112); experiment: Binding to HRAS by surface plasmon resonance (SPR), KD and KD ratio to KRAS; conditions: ratio of KD value for HRAS wild-type protein to KD value for KRAS (SPR)
In short: (§1)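 SPR, 30°C: Avi-biotin RAS·GDP captured via Biotin CAPture (~100–300 RU); running buffer HBS pH 7.4, 1 mM DTT, 10 mM MgCl2, 0.01% Tween 20, 10 µM GDP, 4% DMSO. Single-cycle kinetics, 100 µL/min, 75 s injections; 1:1 model → KD.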

[1] = biological target: GDP-bound NRAS wild-type protein (Homo sapiens, UniProt P01111); experiment: Binding to NRAS by surface plasmon resonance (SPR), KD and KD ratio to KRAS; conditions: ratio of KD value for GDP-bound NRAS wild-type protein to KD value for KRAS (SPR)
GDP-bound NRAS wild-type protein, sequence (P01111 whole entry): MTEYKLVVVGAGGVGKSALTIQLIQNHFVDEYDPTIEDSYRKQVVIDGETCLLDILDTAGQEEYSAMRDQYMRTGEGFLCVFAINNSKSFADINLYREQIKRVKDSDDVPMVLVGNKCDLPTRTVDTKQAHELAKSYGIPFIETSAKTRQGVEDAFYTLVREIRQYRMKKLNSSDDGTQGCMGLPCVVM
In short: as §1

[2] = tested on: human lung cancer strain NCI-H441; assay type: cell-based
In short: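 Proliferation was scored by […] measured after the reagent was added to cultures kept at 37°C in 5% carbon dioxide.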

HRAS wild-type protein, sequence (P01112 whole entry): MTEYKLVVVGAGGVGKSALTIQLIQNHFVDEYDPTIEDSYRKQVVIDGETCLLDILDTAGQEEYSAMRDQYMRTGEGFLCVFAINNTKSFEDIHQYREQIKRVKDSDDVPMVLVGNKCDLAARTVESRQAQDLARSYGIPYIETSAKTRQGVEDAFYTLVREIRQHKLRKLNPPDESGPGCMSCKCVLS

## CCCOC[C@H]1C(=O)N[C@@H]([C@@H](C)CC)C(=O)N(C)CC(=O)N(C)[C@H]2C/C=C\CCN(C2=O)[C@@H](Cc2ccc(C(F)(F)F)cc2)C(=O)N(C)CC(=O)N[C@@H](CCc2cc(F)c(C(F)(F)F)c(F)c2)C(=O)N2C[C@H](OCC)C[C@H]2C(=O)NC2(CC(C)(C)C2)C(=O)N(C)[C@@H](C2CCCC2)C(=O)N(C)[C@H](C(=O)N(CC)CC)CC(=O)N1C [PP1575]
HRAS wild-type protein
  HRAS /KRAS: B (a compound having 3 or more and less than 10 is denoted as B)
[1]
  NRAS /KRAS: B (a compound having 3 or more and less than 10 is denoted as B)
[2]
  pIC50: 7.95

## CCO[C@@H]1C[C@H]2C(=O)NC3(CC(C)(C)C3)C(=O)N(C)[C@@H](C3CCCC3)C(=O)N(C)[C@H](C(=O)N(C)CC)CC(=O)N(C)[C@@H](CC)C(=O)N[C@@H]([C@@H](C)CC)C(=O)N(C)CC(=O)N(C)[C@H]3C/C=C\CCN(C3=O)[C@@H](Cc3ccc(C(F)(F)F)cc3)C(=O)N(C)CC(=O)N[C@@H](CCc3cc(F)c(C(F)(F)F)c(F)c3)C(=O)N2C1 [PP1579]
HRAS wild-type protein
  HRAS /KRAS: B (a compound having 3 or more and less than 10 is denoted as B)
[1]
  NRAS /KRAS: A (a compound having 10 or more and less than 20 is denoted as A)
[2]
  pIC50: 8.39

## CCO[C@@H]1C[C@H]2C(=O)NC3(CCC3)C(=O)N(C)[C@@H](C3CCCC3)C(=O)N(C)[C@H](C3CCCCC3)CC(=O)N(C)[C@@H](COC)C(=O)N[C@@H]([C@@H](C)CC)C(=O)N(C)CC(=O)N(C)[C@H]3C/C=C\CCN(C3=O)[C@@H](Cc3ccc(C(F)(F)F)cc3)C(=O)N(C)CC(=O)N[C@@H](CCc3cc(F)c(C(F)(F)F)c(F)c3)C(=O)N2C1 [PP1584]
HRAS wild-type protein
  HRAS /KRAS: B (a compound having 3 or more and less than 10 is denoted as B)
[1]
  NRAS /KRAS: B (a compound having 3 or more and less than 10 is denoted as B)
[2]
  pIC50: 7.18

## CCO[C@@H]1C[C@H]2C(=O)NC3(CC(F)(F)C3)C(=O)N(C)[C@@H](C3CCCC3)C(=O)N(C)C(C3CCCCC3)CC(=O)N(C)[C@@H](COC)C(=O)N[C@@H]([C@@H](C)CC)C(=O)N(C)CC(=O)N(C)[C@H]3C/C=C\CCN(C3=O)[C@@H](Cc3ccc(C(F)(F)F)cc3)C(=O)N(C)CC(=O)N[C@@H](CCc3cc(F)c(C(F)(F)F)c(F)c3)C(=O)N2C1 (stereo partly drawn) [PP1586]
HRAS wild-type protein
  HRAS /KRAS: A (a compound having 10 or more and less than 20 is denoted as A)
[1]
  NRAS /KRAS: A (a compound having 10 or more and less than 20 is denoted as A)
[2]
  pIC50: 7.07

## CCO[C@@H]1C[C@H]2C(=O)NC3(CCC3)C(=O)N(C)[C@@H](C(CC)CC)C(=O)N(C)C(C(C)C)CC(=O)N(C)[C@@H](CC)C(=O)N[C@@H]([C@@H](C)CC)C(=O)N(C)CC(=O)N(C)[C@H]3C/C=C\CCN(C3=O)[C@@H](Cc3ccc(C(F)(F)F)cc3)C(=O)N(C)CC(=O)N[C@@H](CCc3cc(F)c(C(F)(F)F)c(F)c3)C(=O)N2C1 (stereo partly drawn) [PP1589]
HRAS wild-type protein
  HRAS /KRAS: A (a compound having 10 or more and less than 20 is denoted as A)
[1]
  NRAS /KRAS: A (a compound having 10 or more and less than 20 is denoted as A)
[2]
  pIC50: 7.06

## CCO[C@@H]1C[C@H]2C(=O)NC3(CCC3)C(=O)N(C)[C@@H](C3CCCC3)C(=O)N(C)C(C(C)C)CC(=O)N(C)[C@@H](CC)C(=O)N[C@@H]([C@@H](C)CC)C(=O)N(C)CC(=O)N(C)[C@H]3C/C=C\CCN(C3=O)[C@@H](Cc3ccc(C(F)(F)F)cc3)C(=O)N(C)CC(=O)N[C@@H](CCc3cc(F)c(C(F)(F)F)c(F)c3)C(=O)N2C1 (stereo partly drawn) [PP1590]
HRAS wild-type protein
  HRAS /KRAS: B (a compound having 3 or more and less than 10 is denoted as B)
[1]
  NRAS /KRAS: A (a compound having 10 or more and less than 20 is denoted as A)
[2]
  pIC50: 8.10

## CCO[C@@H]1C[C@H]2C(=O)NC3(CC(F)(F)C3)C(=O)N(C)[C@@H](C(CC)CC)C(=O)N(C)C(C(C)C)CC(=O)N(C)[C@@H](CC)C(=O)N[C@@H]([C@@H](C)CC)C(=O)N(C)CC(=O)N(C)[C@H]3C/C=C\CCN(C3=O)[C@@H](Cc3ccc(C(F)(F)F)cc3)C(=O)N(C)CC(=O)N[C@@H](CCc3cc(F)c(C(F)(F)F)c(F)c3)C(=O)N2C1 (stereo partly drawn) [PP1591]
HRAS wild-type protein
  HRAS /KRAS: A (a compound having 10 or more and less than 20 is denoted as A)
[1]
  NRAS /KRAS: A (a compound having 10 or more and less than 20 is denoted as A)
[2]
  pIC50: 7.07

## CCO[C@@H]1C[C@H]2C(=O)NC3(CC(C)(C)C3)C(=O)N(C)[C@@H](C(CC)CC)C(=O)N(C)C(C(C)C)CC(=O)N(C)[C@@H](CC3CC3)C(=O)N[C@@H]([C@@H](C)CC)C(=O)N(C)CC(=O)N(C)[C@H]3C/C=C\CCN(C3=O)[C@@H](Cc3ccc(C(F)(F)F)cc3)C(=O)N(C)CC(=O)N[C@@H](CCc3cc(F)c(C(F)(F)F)c(F)c3)C(=O)N2C1 (stereo partly drawn) [PP1593]
HRAS wild-type protein
  HRAS /KRAS: A (a compound having 10 or more and less than 20 is denoted as A)
[1]
  NRAS /KRAS: A (a compound having 10 or more and less than 20 is denoted as A)
[2]
  pIC50: 6.84

## CCO[C@@H]1C[C@H]2C(=O)NC3(CCC3)C(=O)N(C)[C@@H](C(CC)CC)C(=O)N(C)C(C(C)C)CC(=O)N(C)[C@@H](CC3CC3)C(=O)N[C@@H]([C@@H](C)CC)C(=O)N(C)CC(=O)N(C)[C@H]3C/C=C\CCN(C3=O)[C@@H](Cc3ccc(C(F)(F)F)cc3)C(=O)N(C)CC(=O)N[C@@H](CCc3cc(F)c(C(F)(F)F)c(F)c3)C(=O)N2C1 (stereo partly drawn) [PP1595]
HRAS wild-type protein
  HRAS /KRAS: A (a compound having 10 or more and less than 20 is denoted as A)
[1]
  NRAS /KRAS: A (a compound having 10 or more and less than 20 is denoted as A)
[2]
  pIC50: 7.19

## CCO[C@@H]1C[C@H]2C(=O)NC3(CCC3)C(=O)N(C)[C@@H](C3CCCC3)C(=O)N(C)[C@@H](C(C)C)CC(=O)N(C)[C@@H](CC3CC3)C(=O)N[C@@H]([C@@H](C)CC)C(=O)N(C)CC(=O)N(C)[C@H]3C/C=C\CCN(C3=O)[C@@H](Cc3ccc(C(F)(F)F)cc3)C(=O)N(C)CC(=O)N[C@@H](CCc3cc(F)c(C(F)(F)F)c(F)c3)C(=O)N2C1 [PP1596]
HRAS wild-type protein
  HRAS /KRAS: B (a compound having 3 or more and less than 10 is denoted as B)
[1]
  NRAS /KRAS: A (a compound having 10 or more and less than 20 is denoted as A)
[2]
  pIC50: 7.74

## CCO[C@@H]1C[C@H]2C(=O)NC3(CC(F)(F)C3)C(=O)N(C)[C@@H](C3CCCC3)C(=O)N(C)C(C(C)C)CC(=O)N(C)[C@@H](CC3CC3)C(=O)N[C@@H]([C@@H](C)CC)C(=O)N(C)CC(=O)N(C)[C@H]3C/C=C\CCN(C3=O)[C@@H](Cc3ccc(C(F)(F)F)cc3)C(=O)N(C)CC(=O)N[C@@H](CCc3cc(F)c(C(F)(F)F)c(F)c3)C(=O)N2C1 (stereo partly drawn) [PP1598]
HRAS wild-type protein
  HRAS /KRAS: A (a compound having 10 or more and less than 20 is denoted as A)
[1]
  NRAS /KRAS: A (a compound having 10 or more and less than 20 is denoted as A)
[2]
  pIC50: 7.44

## CCO[C@@H]1C[C@H]2C(=O)NC3(CCC3)C(=O)N(C)[C@@H](C3CCCC3)C(=O)N(C)[C@H](C(C)C)CC(=O)N(C)[C@@H](CC)C(=O)N[C@@H]([C@@H](C)CC)C(=O)N(C)CC(=O)N(C)[C@H]3C/C=C\CCN(C3=O)[C@@H](CC3CCCCC3)C(=O)N(C)CC(=O)N[C@@H](CCc3cc(F)c(C(F)(F)F)c(F)c3)C(=O)N2C1 [PP1601]
HRAS wild-type protein
  HRAS /KRAS: A (a compound having 10 or more and less than 20 is denoted as A)
[1]
  NRAS /KRAS: B (a compound having 3 or more and less than 10 is denoted as B)
[2]
  pIC50: 7.10

## CCO[C@@H]1C[C@H]2C(=O)NC3(CC(C)(C)C3)C(=O)N(C)[C@@H](C3CCCC3)C(=O)N(C)[C@H](C(C)C)CC(=O)N(C)[C@@H](CC)C(=O)N[C@@H]([C@@H](C)CC)C(=O)N(C)CC(=O)N(C)[C@H]3C/C=C\CCN(C3=O)[C@@H](CC3CCCCC3)C(=O)N(C)CC(=O)N[C@@H](CCc3cc(F)c(C(F)(F)F)c(F)c3)C(=O)N2C1 [PP1603]
HRAS wild-type protein
  HRAS /KRAS: B (a compound having 3 or more and less than 10 is denoted as B)
[1]
  NRAS /KRAS: B (a compound having 3 or more and less than 10 is denoted as B)
[2]
  pIC50: 6.88

## CCO[C@@H]1C[C@H]2C(=O)NC3(CC(C)(C)C3)C(=O)N(C)[C@@H](C(CC)CC)C(=O)N3CCC[C@@H]3CC(=O)N(C)[C@@H](CC)C(=O)N[C@@H]([C@@H](C)CC)C(=O)N(C)CC(=O)N(C)[C@H]3C/C=C\CCN(C3=O)[C@@H](Cc3ccc(C(F)(F)F)cc3)C(=O)N(C)CC(=O)N[C@@H](CCc3cc(F)c(C(F)(F)F)c(F)c3)C(=O)N2C1 [PP1605]
HRAS wild-type protein
  HRAS /KRAS: A (a compound having 10 or more and less than 20 is denoted as A)
[1]
  NRAS /KRAS: A (a compound having 10 or more and less than 20 is denoted as A)
[2]
  pIC50: 7.50

## CCO[C@@H]1C[C@H]2C(=O)NC3(CC(C)(C)C3)C(=O)N(C)[C@@H](C3CCCC3)C(=O)N3CCC[C@@H]3CC(=O)N(C)[C@@H](CC)C(=O)N[C@@H]([C@@H](C)CC)C(=O)N(C)CC(=O)N(C)[C@H]3C/C=C\CCN(C3=O)[C@@H](Cc3ccc(C(F)(F)F)cc3)C(=O)N(C)CC(=O)N[C@@H](CCc3cc(F)c(C(F)(F)F)c(F)c3)C(=O)N2C1 [PP1606]
HRAS wild-type protein
  HRAS /KRAS: B (a compound having 3 or more and less than 10 is denoted as B)
[1]
  NRAS /KRAS: B (a compound having 3 or more and less than 10 is denoted as B)
[2]
  pIC50: 7.90
